Assay results published in US8871777B2, “Phenylpyrimidone compounds, the pharmaceutical compositions, preparation methods and uses thereof” (Topharman Shanghai Co., Ltd., priority 2008, dated 2014).

What was measured:
PDE6 in bovine retina = target: T1, PDE6 in bovine retina (Bos taurus, UniProt P11541+P23439); assay: PDE6 enzyme inhibition activity test (scintillation proximity); type: biochemical; settings: for IC50: PDE6 separated from bovine retina, read-out: PDE6 IC50; for PDE6 IC50/PDE5 IC50: selectivity, ratio of IC50 PDE6/IC50 PDE5
T1 construct: obtained by suitably treating various tissues and separating the enzyme with FPLC; from tissue; host or cells: bovine retina
T1 sequence (P11541 2-856 limits assumed): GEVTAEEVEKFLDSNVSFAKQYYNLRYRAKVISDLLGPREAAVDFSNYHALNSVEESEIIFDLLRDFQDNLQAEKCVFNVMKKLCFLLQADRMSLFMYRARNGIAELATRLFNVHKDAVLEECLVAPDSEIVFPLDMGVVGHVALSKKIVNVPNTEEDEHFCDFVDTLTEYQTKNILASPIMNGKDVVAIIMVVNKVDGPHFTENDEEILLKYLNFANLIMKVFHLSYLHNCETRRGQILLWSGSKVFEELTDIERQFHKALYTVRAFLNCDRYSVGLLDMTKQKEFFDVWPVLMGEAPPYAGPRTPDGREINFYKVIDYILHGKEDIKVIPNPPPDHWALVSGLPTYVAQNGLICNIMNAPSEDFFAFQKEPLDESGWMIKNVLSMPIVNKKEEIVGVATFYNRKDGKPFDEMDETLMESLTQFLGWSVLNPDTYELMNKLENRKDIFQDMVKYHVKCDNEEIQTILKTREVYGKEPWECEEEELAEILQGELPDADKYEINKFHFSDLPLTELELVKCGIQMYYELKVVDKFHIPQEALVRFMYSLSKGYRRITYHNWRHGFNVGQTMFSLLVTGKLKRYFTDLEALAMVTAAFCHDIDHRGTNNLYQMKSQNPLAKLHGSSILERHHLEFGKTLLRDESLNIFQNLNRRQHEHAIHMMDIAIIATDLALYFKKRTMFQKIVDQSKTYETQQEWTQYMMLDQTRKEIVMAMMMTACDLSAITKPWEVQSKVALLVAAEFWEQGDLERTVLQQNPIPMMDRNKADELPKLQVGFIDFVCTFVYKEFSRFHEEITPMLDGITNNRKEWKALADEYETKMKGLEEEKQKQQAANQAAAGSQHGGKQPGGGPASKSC
T1 sequence (P23439 2-850 limits assumed): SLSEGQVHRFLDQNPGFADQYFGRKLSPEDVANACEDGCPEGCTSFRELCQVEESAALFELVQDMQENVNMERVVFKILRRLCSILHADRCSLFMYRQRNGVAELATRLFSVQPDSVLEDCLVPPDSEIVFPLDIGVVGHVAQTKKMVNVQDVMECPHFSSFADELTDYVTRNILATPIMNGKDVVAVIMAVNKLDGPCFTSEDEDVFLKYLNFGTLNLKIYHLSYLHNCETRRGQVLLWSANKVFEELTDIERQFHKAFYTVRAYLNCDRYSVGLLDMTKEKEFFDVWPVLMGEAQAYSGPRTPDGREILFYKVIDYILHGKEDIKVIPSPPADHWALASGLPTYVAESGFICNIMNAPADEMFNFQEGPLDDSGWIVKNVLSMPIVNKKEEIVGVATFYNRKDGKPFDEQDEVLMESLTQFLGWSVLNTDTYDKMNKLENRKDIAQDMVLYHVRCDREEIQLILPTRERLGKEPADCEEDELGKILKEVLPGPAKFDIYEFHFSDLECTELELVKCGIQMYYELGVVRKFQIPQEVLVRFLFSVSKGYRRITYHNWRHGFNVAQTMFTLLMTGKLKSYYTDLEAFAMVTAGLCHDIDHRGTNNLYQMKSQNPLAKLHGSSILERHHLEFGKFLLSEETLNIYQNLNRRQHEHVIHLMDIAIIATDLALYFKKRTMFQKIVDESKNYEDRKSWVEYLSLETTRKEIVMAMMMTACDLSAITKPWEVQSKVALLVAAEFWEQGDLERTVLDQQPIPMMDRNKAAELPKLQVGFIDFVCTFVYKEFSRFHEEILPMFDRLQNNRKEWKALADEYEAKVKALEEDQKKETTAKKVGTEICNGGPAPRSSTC
Method: (§1) More specifically, PDE5 and PDE3 were obtained from human blood platelet, and PDE6 was separated from bovine retina. Upon enzyme was separated out, the enzyme inhibition activity test would be carried out immediately. The said enzyme inhibition activity test was performed by directly detecting the scintillation proximity of AMP/GMP using TRKQ7100 and TRKQ7090 kits, which was generally as follows. In the presence of different concentrations of inhibitor and a small amount of substrate, 10 μl of buffer (50 mM Tris/HCl PH 7.5, 8.3 mM MgCl2, 1.7 mM EGTA) was added, and then water was added to a final volume of 100 μl. The reaction was initiated with a fixed amount of enzyme, incubated at 30° C. for 30 min, and then quenched with 50 μl of yttrium silicate beads comprising zinc sulphate. After shaken for 20 min, the reaction mixture was put in dark and settled for 30 min, and then readed on a BECKMAN LS6500 MULTI-PURPOSE SCINTILLATION COUNTER.

[1] = target: T2, human blood platelet PDE5 (Homo sapiens, UniProt O76074); assay: PDE5 enzyme inhibition activity test (scintillation proximity); type: biochemical
T2 construct: obtained by suitably treating various tissues and separating the enzyme with FPLC; from tissue; host or cells: human blood platelets
Method: as §1

Structure (SMILES) | IC50 (PDE6 in bovine retina) | PDE6 IC50/PDE5 IC50 (PDE6 in bovine retina) | IC50 ([1]; PDE5 table) | IC50 ([1]; as repeated in the PDE6 table)
CCCOc1ccc(S(=O)(=O)NCCN2CCOCC2)cc1-c1nc(CC)c(CC)c(=O)[nH]1 [Example 31, 5,6-diethyl-2-{2-n-propoxy-5-[N-(2-morpholinylethyl)aminosulfonyl)phenyl}pyrimid-4(3H)-one] | 52.8 nM | 38.8 | 1.36 nM | 1.36 nM
CCCOc1ccc(S(=O)(=O)N2CCCC2C(=O)O)cc1-c1nc(CC)c(CC)c(=O)[nH]1 (stereo not shown) [Example 32] | 40.6 nM | 20.1 | 2.02 nM | 2.02 nM
CCCOc1ccc(NC(=S)NCC)cc1-c1nc(CC)c(CC)c(=O)[nH]1 [Example 43, 1-(3-(4,5-Diethyl-1,6-dihydro-6-oxopyrimidin-2-yl)-4-n-propoxyphenyl)-3-ethylthiourea] | 42.8 nM | 11.5 | 3.72 nM | 3.72 nM
CCCOc1ccc(N/C(=N/CC)N(CC)CC)cc1-c1nc(CC)c(CC)c(=O)[nH]1 [Example 46, N-[3-(4,5-diethyl-1,6-dihydro-6-oxopyrimidin-2-yl)-4-n-propoxyphenyl]-N′,N″-triethylguanidine] | 642 nM | 589.0 | 1.09 nM | 1.09 nM
CCCOc1ccc(NC(=O)N2CCCC2)cc1-c1nc(CC)c(CC)c(=O)[nH]1 [Example 49] | 620 nM | 10.5 | 1.86 nM | 1.86 nM
CCCOc1ccc(NS(C)(=O)=O)cc1-c1nc(C(C)C)c(Br)c(=O)[nH]1 [Example 50, 5-Bromo-6-isopropyl-2-(2-n-propoxy-5-mesylamidophenyl)pyrimid-4(3H)-one] | 114 nM | 91.9 | 1.24 nM | 
CCCOc1ccc(-c2nc(CC)c(CC)c(=O)[nH]2)cc1-c1nc(CC)c(CC)c(=O)[nH]1 [Example 87, 2,2′-(4-n-Propoxy-1,3-phenylene)bis(5,6-diethylpyrimid-4(3H)-one)] |  |  | 3.29 nM | 
CCCOc1ccc(S(=O)(=O)NC(CCCNC(N)=O)C(=O)O)cc1-c1nc(CC)c(CC)c(=O)[nH]1 (stereo not shown) [Example 118, 2-(N-(3-(4,5-diethyl-1,6-dihydro-6-oxopyrimidin-2-y1)-4-n-propoxyphenyl)sulfonyl)amino-5-ureavaleric acid] |  |  | 0.76 nM | 
CCCOc1ccc(S(=O)(=O)NC(CCCN)C(=O)O)cc1-c1nc(CC)c(CC)c(=O)[nH]1 (stereo not shown) [Example 119, 2-(N-(3-(4,5-diethyl-1,6-dihydro-6-oxopyrimidin-2-yl)-4-n-propoxyphenyl)sulfonyl)amino-5-aminovaleric acid] |  |  | 6.31 nM | 
CCCOc1ccc(C(=O)NC(CCCNC(=N)N)C(=O)O)cc1-c1nc(CC)c(CC)c(=O)[nH]1 (stereo not shown) [Example 149, 2-(3-(4,5-diethyl-1,6-dihydro-6-oxopyrimidin-2-yl)-4-n-propoxybenzamido)-5-guanidylvaleric acid] |  |  | 1.8 nM | 
CCCOc1ccc(C(=O)NC(C)C(=O)OC)cc1-c1nc(CC)c(CC)c(=O)[nH]1 (stereo not shown) [Example 151, methyl 2-(3-(4,5-diethyl-1,6-dihydro-6-oxopyrimidin-2-yl)-4-n-propoxybenzamido)propionate] |  |  | 0.54 nM | 
CCCOc1ccc(C(=O)NC(C)C(N)=O)cc1-c1nc(CC)c(CC)c(=O)[nH]1 (stereo not shown) [Example 155, N-(1-aminoformylethyl)-3-(4,5-diethyl-1,6-dihydro-6-oxopyrimidin-2-yl)-4-n-propoxybenzamide] |  |  | 0.54 nM | 
CCCOc1ccc(NC(=O)CN2CCN(C)CC2)cc1-c1nc(CC)c(CC)c(=O)[nH]1 [Example 179, N-(3-(4,5-diethyl-1,6-dihydro-6-oxopyrimidin-2-yl)-4-n-propoxyphenyl)-2-(4-methylpiperazin-1-yl)acetamide] | 22.2 nM |  |  | 
CCCOc1ccc(S(=O)(=O)NC2C(O)OC(CO)C(O)C2O)cc1-c1nc(CC)c(CC)c(=O)[nH]1 (stereo not shown) [Example 208, 5,6-Diethyl-2-(2-n-propoxy-5-((tetrahydro-2,4,5-trihydroxy-6-(hydroxymethyl)-2H-pyran-3-ylamino)sulfonyl)phenyl]pyrimid-4(3H)-one] |  |  | 3.69 nM | 
CCCOc1ccc(C(=O)NC(CCCNC(N)=O)C(=O)O)cc1-c1nc(CC)c(CC)c(=O)[nH]1 (stereo not shown) [Example 209, 2-(3-(4,5-diethyl-1,6-dihydro-6-oxopyrimidin-2-yl)-4-n-propoxybenzamido)-5-ureavaleric acid] |  |  | 0.64 nM | 
CCCOc1ccc(C(=O)NC(CCCN)C(=O)O)cc1-c1nc(CC)c(CC)c(=O)[nH]1 (stereo not shown) [Example 210, 2-(3-(4,5-diethyl-1,6-dihydro-6-oxopyrimidin-2-yl)-4-n-propoxybenzamido)-5-aminovaleric acid] |  |  | 6.23 nM | 
CCCOc1ccc(C(=O)NC2C(O)OC(CO)C(O)C2O)cc1-c1nc(CC)c(CC)c(=O)[nH]1 (stereo not shown) [Example 211] |  |  | 0.9 nM | 
CCCOc1ccc(C(=O)NCCS(N)(=O)=O)cc1-c1nc(CC)c(CC)c(=O)[nH]1 [Example 212, 2-(3-(4,5-diethyl-1,6-dihydro-6-oxopyrimidin-2-yl)-4-n-propoxybenzamido)ethylsulphonamide] |  |  | 0.79 nM | 
CCCOc1ccc(C(=O)NCCS(=O)(=O)N2CCN(C)CC2)cc1-c1nc(CC)c(CC)c(=O)[nH]1 [Example 213, 3-(4,5-diethyl-1,6-dihydro-6-oxopyrimidin-2-yl)-N-(4-methyl-1-piperazinylsulfonylethyl)-4-n-propoxybenzamide] |  |  | 2.8 nM | 
CCCOc1ccc(C(=O)NCCS(=O)(=O)N(CC)CC)cc1-c1nc(CC)c(CC)c(=O)[nH]1 [Example 214, 3-(4,5-diethyl-1,6-dihydro-6-oxopyrimidin-2-yl)-N-(N,N-diethylaminosulfonylethyl)-4-n-propoxybenzamide] |  |  | 1.8 nM | 
CCCOc1ccc(C(=O)NCCCS(N)(=O)=O)cc1-c1nc(CC)c(CC)c(=O)[nH]1 [Example 215, 3-(3-(4,5-diethyl-1,6-dihydro-6-oxopyrimidin-2-yl)-4-n-propoxybenzamido)propylsulphonamide] |  |  | 0.88 nM | 
CCCOc1ccc(C(=O)NCCCS(=O)(=O)N2CCN(C)CC2)cc1-c1nc(CC)c(CC)c(=O)[nH]1 [Example 216, 3-(4,5-diethyl-1,6-dihydro-6-oxopyrimidin-2-yl)-N-(4-methyl-1-piperazinylsulfonylpropyl)-4-n-propoxybenzamide] |  |  | 0.83 nM | 
CCCOc1ccc(C2OC(CO)C(O)C(O)C2O)cc1-c1nc(CC)c(CC)c(=O)[nH]1 (stereo not shown) [Example 218, 5,6-Diethyl-2-(5-(tetrahydro-3,4,5-trihydroxy-6-(hydroxymethyl)-2H-pyran-2-yl)-2-n-propoxyphenyl)pyrimid-4(3H)-one] |  |  | 8.63 nM | 
